Experimental data from patent US5342851A, “Substituted thiazole derivatives useful as platelet aggregation inhibitors” (McNeil-PPC, Inc., priority 1992, dated 1994).
pIC50: −log10 of the molar value. Counter-ions that a name gives are not always drawn. Like-named read-outs stand apart in the source and are kept apart here.

Tests used:
[1] = tested on: activated platelets (125I-fibrinogen binding); assay: Fibrinogen Binding (125I-fibrinogen binding to activated platelets); details: read-out: Binding (IC50, concentration of compound which provides 50% fibrinogen binding); thrombin-stimulated platelets; 0.15 μM 125I-fibrinogen
Protocol: The compounds of the invention as identified above are evaluated for platelet aggregation inhibition activity as indicated by the percentage of nonaggregated platelets which are available for binding in accordance with the following procedure.
Briefly, 40 mL of PRP (obtained from Biological Specialty Corp., Lansdale, Pa.) are centrifuged at 120×g to remove contaminating red cells. Aspirin (50 μM) is added and the PRP is incubated at 37° C. for 20 minutes. […] Platelets are concentrated by a 300×g centrifugation (10 minutes) and the pellet is resuspended in 4 mL. of Tyrode's buffer. The platelet suspension (4 mL) is gel-filtered through a Sepharose-2B column (50 mL bed volume). […] The binding reaction is performed in polystyrene tubes (final volume […]). Reagents are added in the following order: 80 mL of Tyrode's buffer, 50 mL of CaCl2 (final concentration (f.c.) […]) and 50 mL of thrombin (f.c. 0.1 unit/mL). The platelet suspension is then added and the mixture is allowed to incubate at room temperature for 2 minutes. Hirudin (50 mL, f.c. 0.5 unit/mL) is immediately added to prevent the catalytic activity of thrombin. […] The mixture is incubated for 10 minutes at room temperature. To terminate the binding reaction the platelets are sedimented (10,000×g for 3 minutes) through silicone oil (3:1 hi-phenol 550/methyl silicone 200, W. F. Nye, Inc., New Bedford, Mass.), in an Eppendorf centrifuge.
The amount of platelet radioactivity measured in the presence of nonlabeled fibrinogen (4 mg/mL) is considered the nonspecific binding. All samples are repeated in triplicate.
Positive percentages of fibrinogen binding indicates higher activity for inhibiting platelet aggregation since only non-aggregated or free platelets are available for fibrinogen binding.

[2] = tested on: platelets (gel-filtered platelet rich plasma); assay: Platelet Aggregation Inhibition Activity (agonist thrombin or ADP, light transmission); assay type: cell-based; details: for inhibition at 20 µM: Homo sapiens, thrombin or ADP agonist, read-out: Aggregation (percentage increase in light transmission)
Protocol: The percentage of platelet aggregation is calculated as an increase in light transmission of drug treated platelet concentrate versus control treated platelet concentrate. Blood is obtained from drug free, normal donors into tubes containing 0.13M sodium citrate (two sources are routinely used: platelet concentrate obtained from Biological Specialty Corp., Lansdale, Pa. or whole blood obtained from donors). Platelet rich plasma (PRP) is collected by centrifugation of the concentrate or whole blood at 130×g for 15 minutes at 25° C. The PRP (5 mL) is gel filtered through Sepharose 2B (bed volume 50 mL), and the platelet count is adjusted to 2×10^7 platelets per sample. The following constituents are added to a siliconized cuvette: 250 μL of the concentrated platelet filtrate, 100 μL of Tyrode's buffer (0.14M NaCl, 0.0027M KCl, 0.012M NaHCO3, 0.76 mM Na2 HPO4, 0.0055M glucose and 2 mg/mL BSA pH 7.4), 50 μL of 2 mM calcium and test drug (50 mL).
Aggregation is monitored in a dual channel Chrono-log Aggregometer for three minutes following the addition of agonist (thrombin 50 μL of 1 unit/mL, or ADP 50 μL of 100 μM). The final assay volume is 500 μL. The reaction takes place at 37° C. The peak aggregation response is calculated as the increase in light transmission units over a three minute period. The difference of the increase in light transmission between control and drug treated platelets is then expressed as a percent of the nondrug treated controls. […] A percentage increase in light transmission indicates platelet aggregation inhibition activity for the tested compound.

[3] = read-out: Aggregation (IC50, concentration at which the increase in light transmission equals 50%), thrombin or ADP agonist, 37° C., three minutes

SMILES	pIC50 [1]	pIC50 [2, 3]	pIC50 ([2]; read-out: Aggregation (IC50, concentration at which the increase in light transmission equals 50%))	inhibition at 20 µM [2] [%]
Cc1ccc(-c2csc(-n3ncc(C(=O)NCCCN)c3C(F)(F)F)n2)cc1 [Example 123]	4.77	4.77	–	–
NCCCNC(=O)c1cnn(-c2nc(-c3cccc(C(F)(F)F)c3)c(Br)s2)c1C(F)(F)F [Example 124]	5.26	5.49	–	–
N=C(N)NCCCNC(=O)c1cnn(-c2nc(-c3cccc(C(F)(F)F)c3)cs2)c1C(F)(F)F [Example 128, 2-[4-(3-Guanidinopropylcarbamoyl)-5-(trifluoromethyl)-pyrazol-1-yl]-4-(3-trifluoromethylphenyl)thiazole Nitrate]	4.76	–	3.93	–
FC(F)(F)c1cccc(-c2csc(-n3ncc(COCCCN4CCCCC4)c3C(F)(F)F)n2)c1 [Example 136, 2-[4-[3-(N-Piperidino)propoxymethyl]-5-(trifluoromethyl)pyrazol-1-yl]-4-(3-trifluoromethylphenyl)thiazole Oxalate]	4.77	4.68	–	–
CCN(CC)CCCNC(=O)c1ccc(-c2csc(-c3ccc(C(F)(F)F)cc3)n2)cc1 [Example 150]	5.36	5.30	–	–
CCN(CC)CCCNC(=O)c1ccc(-c2csc(-c3ccc(C)cc3)n2)cc1 [Example 151]	4.72	4.78	–	–
CCN(CC)CCCNC(=O)c1ccc(-c2csc(-c3ccc(C(C)(C)C)cc3)n2)cc1 [Example 153]	5.37	4.82	–	–
Cc1ccc(-c2nc(-c3ccc(C(=O)NCCCN(C)C)cc3)cs2)cc1 [Example 154]	5.00	5.14	–	–
CN(C)CCCNC(=O)c1ccc(-c2csc(-c3ccc(C(C)(C)C)cc3)n2)cc1 [Example 156]	4.92	4.85	–	–
O=C(NCCN1CCCCC1)c1ccc(-c2csc(-c3ccccc3)n2)cc1 [Example 158]	5.28	5.06	–	–
Cc1ccc(-c2nc(-c3ccc(C(=O)NCCCN4CCCC4=O)cc3)cs2)cc1 [Example 170]	4.97	–	–	90
CN(C)CCNC(=O)c1ccc(-c2csc(-c3ccc(C(F)(F)F)cc3)n2)cc1 [Example 174]	5.74	–	–	85
CCN(CC)CCNC(=O)c1ccc(-c2csc(-c3ccc(C)cc3)n2)cc1 [Example 176]	5.60	5.40	–	–
CCN(CC)CCCCNC(=O)c1ccc(-c2csc(-c3ccc(Cl)cc3)n2)cc1 [Example 179]	5.57	5.24	–	–
NCCNC(=O)c1ccc(-c2csc(-c3ccc(C(F)(F)F)cc3)n2)cc1 [Example 196]	5.22	5.43	–	–
O=C(NCCCBr)c1ccc(-c2csc(-c3ccc(C(F)(F)F)cc3)n2)cc1 [Example 209]	5.11	5.26	–	–
O=C(NCCCN1CCCCC1)c1ccc(-c2csc(-c3ccc(Cl)cc3)n2)cc1 [Example 211]	5.47	5.30	–	–
O=C(NCCCNC1CCCCC1)c1ccc(-c2csc(-c3ccc(Cl)cc3)n2)cc1 [Example 213]	5.04	5.00	–	–
CCCNCCCNC(=O)c1ccc(-c2csc(-c3ccc(C(F)(F)F)cc3)n2)cc1 [Example 221]	5.24	–	–	85
CCCCNCCCNC(=O)c1ccc(-c2csc(-c3ccc(Cl)cc3)n2)cc1 [Example 224]	5.48	5.21	–	–
CCCCNCCCNC(=O)c1ccc(-c2csc(-c3ccc(OC)cc3)n2)cc1 [Example 226]	5.37	5.42	–	–
